In patent US20260174741A1, “METHODS OF REDUCING MIRO1 OR PHOSPHORYLATED ALPHA-SYNUCLEIN” (Acurex Biosciences Corporation, priority 2022, published 2026):
Read-outs that look alike come from different tables or passages of the source.

Experiments:
Miro1 [1] = experiment: Interventional treatment of rat dopaminergic neurons after alpha-synuclein oligomer injury: Miro1 levels in TH+ neurons; type: cell-based; settings: 4 days total, doses from 123 nM to 10 μM, compared to no treatment (FIG. 9)
Method: Rat dopaminergic neurons were cultured as previously described (Schinelli, S. et al. Journal of Neurochemistry 1988, 50(6), pages 1900-1907). After 7 days of culture, cells were challenged with alpha-synuclein oligomer (500 nM) for 48 hours. Subsequent to the challenge, cells were subjected to alpha-synuclein (α-syn) oligomer (500 nM)+various concentrations of Compound 1 (0, 14, 41, 123, 370, 1100, 3300, and 10000 nM) for an additional 48 hours. By condition, N=6 wells were performed and one plate of 96 wells were performed.
(§1) After 4 days of incubation with α-syn oligomer, cells were fixed by a solution of 4% paraformaldehyde for 20 min at room temperature, the control conditions were fixed as well following the same procedure. The cells were then permeabilized and non-specific sites were blocked with a solution of phosphate buffered saline containing (PBS) with saponin and FCS for 15 min at room temperature. […]
(§2) For each well of culture, pictures were taken using InCell Analyzer™ 2200 (GE Healthcare) with 20× magnification. […] The number of dopaminergic neurons (TH), the neurite length of dopaminergic neurons, the signal of phosphorylated 129 of α-syn in dopaminergic neurons and the signal of Miro1 in dopaminergic neurons were automatically evaluated with Developer system analysis (GE Healthcare). All values were expressed as mean±standard error of the mean. […]

[2] = test system: TH+ neurite length of rat dopaminergic neurons; experiment: Interventional treatment of rat dopaminergic neurons after alpha-synuclein oligomer injury: TH+ neurite length; type: cell-based; settings: interventional: 2 days alpha-syn oligomer, then 2 more days with compound
Method: (§3) Rat dopaminergic neurons were cultured as previously described (Schinelli, S. et al. Journal of Neurochemistry 1988, 50(6), pages 1900-1907). After 7 days of culture, cells were challenged with alpha-synuclein oligomer (500 nM) for 48 hours. […] By condition, N=6 wells were performed and one plate of 96 wells were performed.
as §1, §2

[3] = test system: phosphorylated serine-129 (pS129) alpha-synuclein; experiment: Rat primary midbrain neuron co-culture, alpha-synuclein oligomer challenge with co-dosed/pre-treated compound: pS129 alpha-synuclein; type: cell-based; settings: for IC50: Rattus norvegicus, Neuron, read-out: IC50 for lowering pathogenic pS129 alpha-synuclein; for number of pS129+ TH+ neurons: absence of any neuronal challenge; for levels of pathogenic pS129 alpha-synuclein: dose-response experiment, alpha-synuclein oligomer challenge (FIG. 3A, 6A); for pS129 alpha-syn-positive Lewy Body formation / pS129 alpha-syn-positive Lewy Body formation in TH-negative non-dopaminergic neurons: immunocytochemistry; for pS129 alpha-syn-positive Lewy Body formation: alpha-synuclein oligomers 500 nM, 96 hours; for pS129 alpha-syn-positive Lewy Body formation in TH-negative non-dopaminergic neurons: alpha-synuclein oligomers
Method: (§4) The neuronal challenge was alpha-synuclein oligomers.
(§5) After incubation with alpha-synuclein (α-syn) oligomer, cells were fixed by a solution of 4% paraformaldehyde for 20 min at room temperature, the control conditions were fixed as well following the same procedure. The cells were then permeabilized and non-specific sites were blocked with a solution of phosphate buffered saline containing (PBS) with saponin and FCS for 15 min at room temperature. Cells were incubated with a chicken Anti-Tyrosine Hydroxylase antibody (TH, Abcam, ref 76442), a mouse monoclonal Anti-α-syn P129 antibody (Abcam, ref ab184674) and a Rabbit polyclonal Anti-Miro1 antibody (Sigma, ref: HPA010687) in PBS with saponin and FCS overnight at 4° C. […] Nuclei of cells were labelled by a fluorescent marker (Hoechst solution) in the same solution.
(§6) For each well of culture, pictures were taken using InCell Analyzer™ 2200 (GE Healthcare) with 20× magnification. All the images were taken in the same conditions. The number of dopaminergic neurons (TH), the neurite length of dopaminergic neurons, the signal of phosphorylated 129 of α-syn in dopaminergic neurons and the signal of Miro1 in dopaminergic neurons were automatically evaluated with Developer system analysis (GE Healthcare). All values were expressed as mean±standard error of the mean. Statistical analyses were done on the different conditions (ANOVA followed by Dunnett's test).
(§7) In an initial study, rat primary midbrain neuron co-cultures were incubated with alpha-synuclein oligomer alone, with 400 nM Compound 1, or with positive control.
(§8) Immunocytochemistry was performed for DAPI (nuclear dye), Tyrosine Hydroxylase (TH, a marker for dopaminergic neurons), and phospho-Serine129 alpha-synuclein (pS129 α-syn, a pathogenic form of alpha-synuclein found in Lewy Body pathology) in primary rat midbrain neuron co-cultures. In naive untreated neuronal cultures, healthy TH-positive dopaminergic neurons with elaborate neurites were observed and there was very low pS129 α-synbackground signal. When these neuronal cultures were stressed with toxic exogenous alpha-synuclein oligomers (500 nM, 96 hours), there was a large and statistically significant (1) loss of TH+dopaminergic neuron viability, (2) decrease of TH+dopaminergic neuron neurite length, (3) increase in pS129 α-syn-positive Lewy Body formation, and (4) increase in Miro1 protein levels.

[4] = test system: tyrosine-hydroxylase positive (TH+) dopaminergic neurons; experiment: Rat primary midbrain neuron co-culture, alpha-synuclein oligomer challenge with co-dosed/pre-treated compound: TH+ neuron count and neurite length; type: cell-based; settings: for EC50: Rattus norvegicus, Neuron; for TH+ neurite length / TH+ neuron count: absence of any neuronal challenge; for dopamine neuron survival / dopamine neuron neurite length: dose-response experiment; for dopamine neuron survival: alpha-synuclein oligomer challenge (FIG. 2A, 5A); for dopamine neuron neurite length: alpha-synuclein oligomer challenge (FIG. 2B, 5B); for TH+ dopaminergic neuron neurite length / TH-positive dopaminergic neuron viability: immunocytochemistry, alpha-synuclein oligomers 500 nM, 96 hours
Method: as §4, §5, §6, §7, §8

[5] = test system: phosphorylated Ser129 alpha-synuclein; experiment: Interventional treatment of rat dopaminergic neurons after alpha-synuclein oligomer injury: phosphorylated Ser129-positive TH+ neurons; type: cell-based; settings: interventional: 2 days alpha-syn oligomer 500 nM, then 2 more days with compound
Method: as §3, §1, §2

Miro1 [6] = experiment: Rat primary midbrain neuron co-culture, alpha-synuclein oligomer challenge with co-dosed/pre-treated compound: Miro1 levels; type: cell-based; settings: for Miro1 levels: absence of any neuronal challenge; for rescue of Miro1 elevation due to alpha-synuclein oligomer challenge: dose-response experiment (FIG. 3B, 6B); for Miro1 protein levels: immunocytochemistry, alpha-synuclein oligomers 500 nM, 96 hours; for Miro1 release: initial study
Method: as §4, §5, §6, §7, §8

[7] = test system: tyrosine-hydroxylase positive (TH+) dopaminergic neurons; experiment: Rat primary midbrain neuron co-culture, alpha-synuclein oligomer challenge with co-dosed/pre-treated compound: TH+ neuron count and neurite length; type: cell-based; settings: initial study, 40 nM, incubated with alpha-synuclein oligomer (FIG. 4A)
[8] = test system: Parkinson's disease subject-derived fibroblast lines; experiment: Ferroptosis assay: human fibroblast survival assay with RSL3 challenge; type: cell-based; settings: DAPI-positive nuclei count, read-out: EC50 for cell survival (ferroptosis inhibition)
Method: Human fibroblast survival assay. All fibroblasts were obtained from the National Institute of Neurological Disorders and Stroke (NINDS) cell line repository housed at Rutgers University. Compounds were tested in at least one of the following Parkinson's disease subject-derived fibroblast lines: Line ND29802 (LRRK2 G2019S mutation carrier), Line ND40996 (SNCA A53T mutation carrier), or Line ND34263 (GBA N370S mutation carrier).
Human fibroblasts were seeded into 96-well plates on Day 0. On Day 1, fibroblasts were challenged with RSL3 (a ferroptosis activator, CAS No. 1219810-16-8) alone or in co-treatment with test compound administered in dose response. On Day 2, fibroblasts were fixed and stained by the nuclear stain 4′, 6-diamidino-2-phenylindole (DAPI), and the number of DAPI-positive nuclei were counted for each condition using the Yokogawa CQ1 imaging platform to quantify the EC50 for cell survival.

[9] = test system: phosphorylated serine-129 (pS129) alpha-synuclein; experiment: Rat primary midbrain neuron co-culture, alpha-synuclein oligomer challenge with co-dosed/pre-treated compound: pS129 alpha-synuclein; type: cell-based; settings: initial study, 40 nM, incubated with alpha-synuclein oligomer (FIG. 4C)
ferroptosis = settings: described in Example 2 of PCT/US23/73312 as Compound 4; read-out: ferroptosis inhibitor EC50; cited from earlier work

SMILES: C[C@@H](NC(=O)Cc1ccc(C(F)(F)F)cc1)c1cc2cnn(CC(F)(F)F)c2cn1 [Compound 1, (R)—N-(1-(1-(2,2,2-trifluoroethyl)-1H-pyrazolo[3,4-c]pyridin-5-yl)ethyl)-2-(4-(trifluoromethyl)phenyl)acetamide]
- Miro1 levels in TH+ neurons (Miro1 [1]): statistically significantly reduced
- TH+ neurite length ([2]; doses of 370 nM, 3.3 µM, or 10 µM, compared to no treatment (FIG. 8B)): significantly restored
- IC50 ([3]; alpha-synuclein oligomer challenge): < 125 nM
- number of pS129+ TH+ neurons [3]: did not affect
- levels of pathogenic pS129 alpha-synuclein [3]: lowered levels of pathogenic pS129 α-synin a dose-dependent fashion
- pS129 alpha-syn-positive Lewy Body formation ([3]; pre-treated 400 nM): decrease/prevention in pS129 α-syn-positive Lewy Body formation
- pS129 alpha-syn-positive Lewy Body formation in TH-negative non-dopaminergic neurons ([3]; pre-treatment 1.1 uM): robust decrease/prevention
- pathogenic phosphorylated serine-129 (pS129) alpha-synuclein levels ([3]; initial study, 400 nM, incubated with alpha-synuclein oligomer (FIG. 1C)): reduction of pathogenic phosphorylated serine-129 (pS129) alpha-synuclein levels
- EC50 ([4]; alpha-synuclein oligomer challenge, read-out: EC50 for rescue of TH-positive neurite length): < 150 nM
- EC50 ([4]; alpha-synuclein oligomer challenge, read-out: EC50 for rescue of TH-positive neuron viability): ~250 nM
- TH+ neurite length [4]: did not affect
- TH+ neuron count [4]: did not affect
- dopamine neuron survival [4]: rescued dopamine neuron survival in a dose-dependent fashion
- dopamine neuron neurite length [4]: rescued dopamine neuron neurite length in a dose-dependent fashion
- TH+ dopaminergic neuron neurite length ([4]; pre-treated 400 nM): rescue of TH+dopaminergic neuron neurite length
- TH-positive dopaminergic neuron viability ([4]; pre-treated 400 nM): rescue of TH-positive dopaminergic neuron viability
- TH+ neuronal loss induced by alpha-synuclein oligomer ([4]; initial study, 400 nM, incubated with alpha-synuclein oligomer (FIG. 1A)): prevented TH+ neuronal loss
- levels of phosphorylated Ser129-positive TH+ neurons ([5]; doses from 370 nM to 10 μM, compared to no treatment (FIG. 7B)): significantly reduced
- Miro1 levels (Miro1 [6]): did not affect
- rescue of Miro1 elevation due to alpha-synuclein oligomer challenge (Miro1 [6]): did not reach statistical significance
- Miro1 protein levels (Miro1 [6]; pre-treated 400 nM): decrease in Miro1 protein levels
- Miro1 release (Miro1 [6]; 400 nM, incubated with alpha-synuclein oligomer (FIG. 1B)): statistically significant rescue of Miro1 release
- TH+ neuronal loss induced by alpha-synuclein oligomer [7]: prevented TH+ neuronal loss

SMILES: CCN1CCN(c2ccc3nc4ccc(=O)cc-4sc3c2)CC1 [Compound 5, 7-(4-ethylpiperazin-1-yl)-3H-phenothiazin-3-one]
- IC50 [3]: < 0.4 nM
- number of pS129+ TH+ neurons [3]: did not affect
- levels of pathogenic pS129 alpha-synuclein [3]: lowered levels of pathogenic pS129 α-synin a dose-dependent fashion
- pS129 alpha-syn-positive Lewy Body formation ([3]; pre-treated 40 nM): decrease/prevention in pS129 α-syn-positive Lewy Body formation
- pS129 alpha-syn-positive Lewy Body formation in TH-negative non-dopaminergic neurons ([3]; pre-treatment 3.7 nM): robust decrease/prevention
- EC50 [8]: 3.6 nM
- EC50 ([4]; read-out: EC50 for rescue of TH-positive neurite length): < 0.4 nM
- EC50 ([4]; read-out: EC50 for rescue of TH-positive neuron viability): ~7 nM
- TH+ neurite length [4]: did not affect
- TH+ neuron count [4]: did not affect
- dopamine neuron survival [4]: rescued dopamine neuron survival in a dose-dependent fashion
- dopamine neuron neurite length [4]: rescued dopamine neuron neurite length in a dose-dependent fashion
- TH+ dopaminergic neuron neurite length ([4]; pre-treated 40 nM): rescue of TH+dopaminergic neuron neurite length
- TH-positive dopaminergic neuron viability ([4]; pre-treated 40 nM): rescue of TH-positive dopaminergic neuron viability
- Miro1 levels (Miro1 [6]): did not affect
- rescue of Miro1 elevation due to alpha-synuclein oligomer challenge (Miro1 [6]): did not reach statistical significance
- Miro1 protein levels (Miro1 [6]; pre-treated 40 nM): decrease in Miro1 protein levels
- Miro1 release (Miro1 [6]; 40 nM, incubated with alpha-synuclein oligomer (FIG. 4B)): statistically significant rescue of Miro1 release
- pathogenic phosphorylated serine-129 (pS129) alpha-synuclein levels [9]: reduction of pathogenic phosphorylated serine-129 (pS129) alpha-synuclein levels

SMILES: CC(C)N1[C@@H]2CC[C@H]1CN(c1ccc3nc4ccc(=O)cc-4sc3c1)C2 [Compound 9]
- TH+ neurite length ([2]; doses of 11 nM, 33 nM, or 100 nM, compared to no treatment (FIG. 11B)): significantly restored
- levels of phosphorylated Ser129-positive TH+ neurons ([5]; doses of 11 nM, 33 nM, or 100 nM, compared to no treatment (FIG. 10B)): significantly reduced
- EC50 (ferroptosis): 2.9 nM
